From patent US10392348B2, “2-oxo-3,4-dihydroquinoline compounds as plant growth regulators” (Syngenta Participations AG, priority 2015, dated 2019)
Like-named read-outs stand apart in the source and are kept apart here.

What was measured:
[1] = test system: corn plants (variety NK OCTET); assay: Reduced plant water use in corn (foliar spray, repeated weighing of pots); assay type: in vivo; conditions: Zea mays, corn plants sprayed at 500 μM, average of 6 pots
Outline: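 Twelve-day-old corn plants sprayed on foliage with EC formulations diluted in water with 0.4% rape seed methyl ester. Day-time water use tracked by repeated pot weighing through 2.5 DAA, summed cumulatively; analysed by covariance with water use 1 day before application as baseline.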

[2] = test system: soybean plants (variety S20-G7); assay: Reduced plant water use in soybean (foliar spray, repeated weighing of pots); assay type: in vivo; conditions: Glycine max, foliar, Table B1, sprayed at 500 μM, vs negative control
Outline: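 Compounds in blank EC formulation diluted in water with EXTRAVON 1 g/20 L, foliar-sprayed on 12-day-old soybean in growth chambers. Water use from repeated pot weighing at a.m./p.m. periods over 0-2 DAA, summed to cumulative 0-2.5 DAA; ANCOVA with pre-application baseline covariate, relative to blank-formulation control.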

[3] = 0 h, water use during day time vs negative control, 0 DAA a.m. (10:30-12:50), read-out: % WU 0 DAA AM
[4] = 0 h, water use during day time vs negative control, 0 DAA p.m. (14:00-19:50), read-out: % WU 0DAA PM
[5] = 24 h, water use during day time vs negative control, 1 DAA a.m. (07:30-12:50), read-out: % WU 1DAA AM
[6] = 24 h, water use during day time vs negative control, 1 DAA p.m. (14:00-19:50), read-out: % WU 1DAA PM
[7] = 48 h, water use during day time vs negative control, 2 DAA a.m. (07:30-12:50), read-out: % WU 2 DAA AM
[8] = 48 h, water use during day time vs negative control, 2 DAA p.m. (14:00-19:50), read-out: % WU 2 DAA PM
[9] = 60 h, cumulative total water use 0-2.5 DAA (sum of the time points) vs negative control, read-out: % WU Total 0 to 2.5 DAA
[10] = 0 h, 0 DAA a.m. (10:30-12:50), read-out: % WU 0 DAA AM
[11] = 24 h, 1 DAA a.m. (7:30-12:50), read-out: % WU 1DAA AM
[12] = 24 h, 1 DAA p.m. (14:00-19:50), read-out: % WU 1DAA PM
[13] = 48 h, 2 DAA a.m. (07:30-12:50), read-out: % WU 2 DAA AM
[14] = 48 h, 2 DAA p.m. (14:00-19:50), read-out: % WU 2 DAA PM
[15] = 60 h, cumulative total WU (0-2.5 DAA), read-out: % WU Total 0 to 2.5 DAA

SMILES	melting point [°C]	change in vivo at 500 µM [1, 3] [%]	change in vivo at 500 µM [1, 4] [%]	change in vivo at 500 µM [1, 5] [%]	change in vivo at 500 µM [1, 6] [%]	change in vivo at 500 µM [1, 7] [%]	change in vivo at 500 µM [1, 8] [%]	change in vivo at 500 µM [1, 9] [%]	change in vivo at 500 µM [2, 10] [%]	change in vivo at 500 µM [2, 11] [%]	change in vivo at 500 µM [2, 12] [%]	change in vivo at 500 µM [2, 13] [%]	change in vivo at 500 µM [2, 14] [%]	change in vivo at 500 µM [2, 15] [%]
CCN1C(=O)CCc2cc(CNS(=O)(=O)c3ccc(Br)cc3)ccc21 [Compound 2.002, 4-bromo-N-[(1-ethyl-2-oxo-3,4-dihydroquinolin-6-yl)methyl]benzenesulfonamide]	176 to 183	-10.8	-3.6	-3.2	-3.9	-1.2	-1.7	-3.2	-10.4	-6.5	-4	-5.6	-4.2	-5.8
CCN1C(=O)CCc2cc(CNS(=O)(=O)c3ccc(F)cc3F)ccc21 [Compound 2.006, N-[(1-ethyl-2-oxo-3,4-dihydroquinolin-6-yl)methyl]-2,4-difluoro-benzenesulfonamide]	167 to 168	-12.5	-6.7	-6.5	-5.5	-3	-3.2	-5.4	-23.4	-13.8	-13	-10.4	-7.3	-13.2
CCN1C(=O)CCc2cc(CNS(=O)(=O)c3ccc(C)s3)ccc21 [Compound 2.061, N-[(1-ethyl-2-oxo-3,4-dihydroquinolin-6-yl)methyl]-5-methyl-thiophene-2-sulfonamide]	149 to 152	-18.8	-10.8	-7.5	-2.8	-1.6	-0.8	-6.2	-50.4	-7.9	-2.2	-0.5	-1.2	-13.7
CCN1C(=O)CCc2cc(CNS(=O)(=O)c3ccsc3)ccc21 [Compound 2.068, N-[(1-ethyl-2-oxo-3,4-dihydroquinolin-6-yl)methyl]thiophene-3-sulfonamide]	128 to 131	-16.6	-15.1	-12.9	-11.4	-9.2	-9.1	-11.8	-27	-18.1	-14.7	-11.6	-7.5	-15.3
CCCN1C(=O)CCc2cc(CNS(=O)(=O)c3ccc(Br)cc3)ccc21 [Compound 3.002, 4-bromo-N-[(2-oxo-1-propyl-3,4-dihydroquinolin-6-yl)methyl]benzenesulfonamide]	143 to 145	-16.3	-12.2	-13.4	-10.5	-9.5	-7	-10.9	-22.5	-13.7	-9.4	-6.7	-4.7	-11.4
CCCN1C(=O)CCc2cc(CNS(=O)(=O)/C=C/c3cccc(Cl)c3)ccc21 [Compound 3.069, (E)-2-(3-chlorophenyl)-N-[(2-oxo-1-propyl-3,4-dihydroquinolin-6-yl)methyl]ethenesulfonamide]	129 to 133	-8.1	-4.1	-6.1	-5.5	-4.8	-3.8	-5						
